Test results published in ChEMBL document CHEMBL1150047, “New sesquiterpene quinols from a Micronesian sponge, Aka sp” (J Nat Prod, 2003).
Counter-ions that a name gives are not always drawn. Active and inactive are the calls of the source. The rule behind the calls is not given here.

Assays:
[1] = molecular target: Cyclin-dependent kinase 4/cyclin D1 (Homo sapiens) (UniProt P11802+P24385); test: Inhibition of CDK4/Cyclin D1 complex formation at 10 ug/mL; assay type: protein-complex assay
[2] = molecular target: Cyclin-dependent kinase 4/cyclin D1 (Homo sapiens, UniProt P11802); test: Inhibition of CDK4/Cyclin D1 complex formation
Chain of Cyclin-dependent kinase 4/cyclin D1 (P11802 whole entry): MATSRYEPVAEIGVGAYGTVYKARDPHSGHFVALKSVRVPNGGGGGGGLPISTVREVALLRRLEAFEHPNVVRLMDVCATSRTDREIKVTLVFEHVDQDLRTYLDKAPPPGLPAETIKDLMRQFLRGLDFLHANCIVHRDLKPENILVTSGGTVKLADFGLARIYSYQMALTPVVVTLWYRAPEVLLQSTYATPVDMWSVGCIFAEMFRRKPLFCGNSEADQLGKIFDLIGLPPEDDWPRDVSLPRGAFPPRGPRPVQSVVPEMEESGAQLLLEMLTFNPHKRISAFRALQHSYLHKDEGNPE
Chain of Cyclin-dependent kinase 4/cyclin D1 (P24385 whole entry, further chain): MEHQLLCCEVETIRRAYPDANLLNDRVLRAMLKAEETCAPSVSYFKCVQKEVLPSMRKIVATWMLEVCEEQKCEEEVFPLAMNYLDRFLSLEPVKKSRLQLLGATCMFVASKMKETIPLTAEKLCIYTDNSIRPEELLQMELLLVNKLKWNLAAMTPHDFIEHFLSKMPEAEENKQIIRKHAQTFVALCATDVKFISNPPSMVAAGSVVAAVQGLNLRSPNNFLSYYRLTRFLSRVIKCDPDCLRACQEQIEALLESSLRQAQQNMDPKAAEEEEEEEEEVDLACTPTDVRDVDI

Row | IC50 [2] [µM] | Structure (SMILES) | Activity [1]
1 | – | CC1(C)CCC[C@]2(C)[C@@H](Cc3c(O)ccc(O)c3C=O)[C@](C)(O)CC[C@@H]12 | inactive
2 | – | COCc1cc(O)c(O)c2c1[C@@]1(C)CC[C@H]3C(C)(C)CCC[C@]3(C)[C@H]1C2 | inactive
3 | 12.6 | CC(CC[C@@H](C)[C@H]1CC[C@H]2[C@@H]3C[C@H](OS(=O)(=O)O)[C@H]4C[C@H](OS(=O)(=O)O)[C@@H](OS(=O)(=O)O)C[C@]4(C)[C@H]3CC[C@]12C)C(C)(C)C (some centres undefined) [HALISTANOL SULFATE] | –
4 | 19.5 | CC1=CC[C@H]2C(C)(C)CCC[C@]2(C)[C@H]1Cc1cc(O)c(O)c(C=O)c1OS(=O)(=O)O [SIPHONODICTYAL C] | –
